Activity calls are given as the source filed them. Where only a bound is given, the exact number is not on record here.

Format in all cases: functional
For experiment [1], the target named is Tyrosine-protein kinase Blk (Homo sapiens, UniProt P51451).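 Note: obtained as one member of a kinome-wide kinase assay panel.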
The target in experiment [2] is Interleukin-1 receptor-associated kinase 1 (Homo sapiens, UniProt P51617).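 Note: IRAK1 tested as one member of a kinome panel.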
Experiment [3] addresses Protein-tyrosine kinase 2-beta (Homo sapiens, UniProt Q14289).
In experiment [4] the target is Casein kinase I isoform gamma-1 (Homo sapiens, UniProt Q9HCP0).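 Note: measured as the CSNK1G1 member of a kinome profiling panel.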
Casein kinase I isoform gamma-1, sequence (Q9HCP0 whole entry, canonical isoform): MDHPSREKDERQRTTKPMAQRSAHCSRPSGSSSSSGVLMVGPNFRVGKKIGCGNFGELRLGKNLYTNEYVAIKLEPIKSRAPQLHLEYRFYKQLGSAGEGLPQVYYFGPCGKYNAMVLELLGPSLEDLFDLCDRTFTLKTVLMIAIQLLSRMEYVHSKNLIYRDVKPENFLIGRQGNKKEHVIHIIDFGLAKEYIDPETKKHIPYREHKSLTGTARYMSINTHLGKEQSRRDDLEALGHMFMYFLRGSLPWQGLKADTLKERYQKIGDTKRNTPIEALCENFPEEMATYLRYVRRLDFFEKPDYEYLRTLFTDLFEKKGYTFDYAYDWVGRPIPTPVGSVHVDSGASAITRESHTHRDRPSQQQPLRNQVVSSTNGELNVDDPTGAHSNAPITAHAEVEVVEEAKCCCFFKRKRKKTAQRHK
For experiment [5], the target named is Rho-associated protein kinase 2 (Homo sapiens, UniProt O75116).
Rho-associated protein kinase 2, sequence (O75116 whole entry, the tested form may be a part): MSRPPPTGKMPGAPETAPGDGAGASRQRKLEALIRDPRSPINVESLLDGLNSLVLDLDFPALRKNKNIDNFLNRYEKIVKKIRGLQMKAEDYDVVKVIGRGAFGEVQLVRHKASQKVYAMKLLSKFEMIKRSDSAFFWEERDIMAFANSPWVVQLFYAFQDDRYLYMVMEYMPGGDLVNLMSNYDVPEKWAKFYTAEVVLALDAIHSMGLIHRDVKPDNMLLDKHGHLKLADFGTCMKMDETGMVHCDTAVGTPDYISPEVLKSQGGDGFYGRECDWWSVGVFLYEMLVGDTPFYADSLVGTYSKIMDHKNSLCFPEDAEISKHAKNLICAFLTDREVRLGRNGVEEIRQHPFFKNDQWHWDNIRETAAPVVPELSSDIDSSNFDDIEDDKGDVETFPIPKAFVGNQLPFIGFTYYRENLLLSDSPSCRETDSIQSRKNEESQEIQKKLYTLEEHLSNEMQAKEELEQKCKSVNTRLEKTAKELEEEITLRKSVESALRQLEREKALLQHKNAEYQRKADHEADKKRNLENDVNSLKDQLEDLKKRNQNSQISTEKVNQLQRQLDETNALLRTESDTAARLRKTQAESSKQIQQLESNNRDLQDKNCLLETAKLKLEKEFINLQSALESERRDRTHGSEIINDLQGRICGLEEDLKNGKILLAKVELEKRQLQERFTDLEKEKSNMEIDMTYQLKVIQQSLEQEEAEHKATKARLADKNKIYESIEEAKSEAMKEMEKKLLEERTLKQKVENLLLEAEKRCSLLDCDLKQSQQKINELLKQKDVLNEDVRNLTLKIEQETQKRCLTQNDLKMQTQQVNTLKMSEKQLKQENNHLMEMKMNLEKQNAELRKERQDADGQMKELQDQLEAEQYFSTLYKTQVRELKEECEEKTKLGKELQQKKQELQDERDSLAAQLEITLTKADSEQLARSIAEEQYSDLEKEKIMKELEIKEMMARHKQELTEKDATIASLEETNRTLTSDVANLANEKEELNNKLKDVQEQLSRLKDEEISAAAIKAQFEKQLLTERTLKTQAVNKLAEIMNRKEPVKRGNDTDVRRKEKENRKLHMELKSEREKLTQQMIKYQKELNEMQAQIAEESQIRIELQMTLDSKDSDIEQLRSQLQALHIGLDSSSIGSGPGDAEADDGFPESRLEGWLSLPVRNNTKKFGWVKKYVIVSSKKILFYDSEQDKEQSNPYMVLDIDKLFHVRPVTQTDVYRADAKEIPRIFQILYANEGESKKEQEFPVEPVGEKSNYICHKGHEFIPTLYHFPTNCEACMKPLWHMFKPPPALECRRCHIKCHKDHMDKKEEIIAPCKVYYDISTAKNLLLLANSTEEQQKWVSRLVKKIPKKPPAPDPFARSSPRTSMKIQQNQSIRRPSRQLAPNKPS
The target of experiment [6] is LIM domain kinase 1 (Homo sapiens, UniProt P53667). The experiment can be described thus: Navigating the Kinome. Panel member name: LIMK1.
LIM domain kinase 1, sequence (P53667 whole entry, the tested form may be a part): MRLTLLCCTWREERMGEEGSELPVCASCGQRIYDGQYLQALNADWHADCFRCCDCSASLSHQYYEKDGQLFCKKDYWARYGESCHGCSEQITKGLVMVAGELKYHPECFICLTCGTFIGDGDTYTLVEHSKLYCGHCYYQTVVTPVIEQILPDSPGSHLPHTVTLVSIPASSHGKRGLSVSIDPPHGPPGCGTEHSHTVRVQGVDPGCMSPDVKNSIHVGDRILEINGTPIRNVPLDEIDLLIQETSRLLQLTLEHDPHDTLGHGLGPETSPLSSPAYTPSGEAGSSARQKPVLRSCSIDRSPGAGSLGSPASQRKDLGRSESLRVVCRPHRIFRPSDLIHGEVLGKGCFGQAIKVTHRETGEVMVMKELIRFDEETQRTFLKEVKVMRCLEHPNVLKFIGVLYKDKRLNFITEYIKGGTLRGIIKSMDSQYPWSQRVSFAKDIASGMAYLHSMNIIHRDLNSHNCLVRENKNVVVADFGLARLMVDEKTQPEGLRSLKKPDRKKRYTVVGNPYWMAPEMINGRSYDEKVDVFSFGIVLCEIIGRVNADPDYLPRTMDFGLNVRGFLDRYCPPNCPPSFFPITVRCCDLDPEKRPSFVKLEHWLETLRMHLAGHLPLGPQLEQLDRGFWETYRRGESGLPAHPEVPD
Experiment [7] concerns the target T1, Hexokinase HKDC1 (Homo sapiens, UniProt Q2TB90).
T1 sequence (Q2TB90 whole entry): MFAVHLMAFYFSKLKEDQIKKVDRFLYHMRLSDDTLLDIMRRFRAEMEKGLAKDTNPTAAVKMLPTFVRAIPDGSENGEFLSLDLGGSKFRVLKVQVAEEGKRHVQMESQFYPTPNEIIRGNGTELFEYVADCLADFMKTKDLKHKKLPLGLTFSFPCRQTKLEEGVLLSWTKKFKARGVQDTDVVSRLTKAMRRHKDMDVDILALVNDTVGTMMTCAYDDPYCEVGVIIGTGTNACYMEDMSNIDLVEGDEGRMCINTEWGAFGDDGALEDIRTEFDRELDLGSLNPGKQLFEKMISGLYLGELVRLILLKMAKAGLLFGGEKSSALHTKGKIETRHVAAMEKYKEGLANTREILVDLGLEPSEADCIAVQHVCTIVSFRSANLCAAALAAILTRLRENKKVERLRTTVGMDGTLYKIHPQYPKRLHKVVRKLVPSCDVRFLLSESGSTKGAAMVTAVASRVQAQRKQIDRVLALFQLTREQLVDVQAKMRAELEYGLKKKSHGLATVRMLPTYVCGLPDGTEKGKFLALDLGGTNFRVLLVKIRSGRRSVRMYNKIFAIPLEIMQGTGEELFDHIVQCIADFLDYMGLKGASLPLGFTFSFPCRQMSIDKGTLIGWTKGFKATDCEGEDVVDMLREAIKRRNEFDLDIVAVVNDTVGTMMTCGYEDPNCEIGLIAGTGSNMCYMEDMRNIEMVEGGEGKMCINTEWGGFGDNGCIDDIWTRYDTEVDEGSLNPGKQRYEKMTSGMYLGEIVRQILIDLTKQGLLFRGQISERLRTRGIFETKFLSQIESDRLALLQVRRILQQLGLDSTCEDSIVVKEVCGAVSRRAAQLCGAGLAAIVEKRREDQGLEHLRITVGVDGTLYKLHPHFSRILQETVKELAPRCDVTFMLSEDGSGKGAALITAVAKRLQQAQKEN
The experiment can be described thus: inhibition of HKDC1 glucose phosphorylation – biochemical, W721R variant, dose response (AID 504729).

For experiment [8], the target named is T2, Protein RecA (Mycobacterium tuberculosis, UniProt P9WHJ3).
T2 sequence (P9WHJ3 whole entry): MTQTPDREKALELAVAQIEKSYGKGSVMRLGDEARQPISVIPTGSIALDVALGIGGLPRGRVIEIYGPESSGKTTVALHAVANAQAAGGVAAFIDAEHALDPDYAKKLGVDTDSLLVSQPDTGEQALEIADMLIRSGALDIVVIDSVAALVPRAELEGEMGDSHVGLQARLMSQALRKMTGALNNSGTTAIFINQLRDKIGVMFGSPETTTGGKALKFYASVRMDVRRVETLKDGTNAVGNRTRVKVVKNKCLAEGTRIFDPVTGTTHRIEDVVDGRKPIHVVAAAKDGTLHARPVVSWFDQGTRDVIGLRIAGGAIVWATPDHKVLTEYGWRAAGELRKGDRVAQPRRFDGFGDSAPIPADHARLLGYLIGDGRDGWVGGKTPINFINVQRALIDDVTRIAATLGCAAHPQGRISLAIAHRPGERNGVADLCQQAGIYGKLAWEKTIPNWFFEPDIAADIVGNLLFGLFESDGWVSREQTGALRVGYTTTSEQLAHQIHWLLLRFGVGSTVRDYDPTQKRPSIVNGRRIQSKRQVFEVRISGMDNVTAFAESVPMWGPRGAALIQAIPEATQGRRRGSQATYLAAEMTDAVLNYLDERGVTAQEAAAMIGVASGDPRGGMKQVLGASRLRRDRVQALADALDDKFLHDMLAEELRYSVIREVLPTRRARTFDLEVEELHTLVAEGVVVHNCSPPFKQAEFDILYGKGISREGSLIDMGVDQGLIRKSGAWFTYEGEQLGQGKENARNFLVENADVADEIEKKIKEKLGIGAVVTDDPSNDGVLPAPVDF
Put plainly: Fluorescence Cell-Free Homogeneous Dose Retest to Identify Inhibitors of RecA-Intein Splicing Activity. [Related pubchem assays (depositor defined):AID2097, AID2223, AID489010, AID492950].

Experiment [9] deals with T3, Replicative DNA helicase DnaB (Mycobacterium tuberculosis, UniProt P9WMR3).
T3 sequence (P9WMR3 whole entry): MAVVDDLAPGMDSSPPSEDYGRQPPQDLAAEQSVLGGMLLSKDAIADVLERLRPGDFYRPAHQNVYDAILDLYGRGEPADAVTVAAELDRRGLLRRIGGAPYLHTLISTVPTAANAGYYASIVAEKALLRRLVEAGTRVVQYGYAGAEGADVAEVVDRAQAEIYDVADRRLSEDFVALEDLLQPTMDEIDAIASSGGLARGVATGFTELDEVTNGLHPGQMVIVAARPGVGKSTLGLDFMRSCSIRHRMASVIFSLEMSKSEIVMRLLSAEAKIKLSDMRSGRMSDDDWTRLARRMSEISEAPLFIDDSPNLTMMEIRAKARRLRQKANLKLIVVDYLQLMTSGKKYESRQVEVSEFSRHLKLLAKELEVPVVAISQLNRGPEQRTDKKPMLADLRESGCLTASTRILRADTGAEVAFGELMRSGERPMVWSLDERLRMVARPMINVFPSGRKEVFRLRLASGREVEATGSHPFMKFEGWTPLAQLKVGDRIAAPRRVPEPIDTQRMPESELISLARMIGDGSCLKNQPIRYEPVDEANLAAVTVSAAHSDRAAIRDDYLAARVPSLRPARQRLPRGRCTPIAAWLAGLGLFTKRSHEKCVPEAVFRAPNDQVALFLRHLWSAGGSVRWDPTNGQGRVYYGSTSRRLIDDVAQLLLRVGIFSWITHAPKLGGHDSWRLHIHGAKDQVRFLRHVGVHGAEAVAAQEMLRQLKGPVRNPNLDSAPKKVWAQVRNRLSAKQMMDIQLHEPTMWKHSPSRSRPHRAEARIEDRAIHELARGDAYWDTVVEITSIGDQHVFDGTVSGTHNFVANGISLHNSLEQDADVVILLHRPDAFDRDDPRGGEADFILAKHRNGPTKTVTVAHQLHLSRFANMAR
Put plainly: DnaB intein splicing inhibitors, dose response, biochemical, cell-free fluorescence (AID 449749).

Tyrosine-protein kinase Blk, sequence (P51451 whole entry): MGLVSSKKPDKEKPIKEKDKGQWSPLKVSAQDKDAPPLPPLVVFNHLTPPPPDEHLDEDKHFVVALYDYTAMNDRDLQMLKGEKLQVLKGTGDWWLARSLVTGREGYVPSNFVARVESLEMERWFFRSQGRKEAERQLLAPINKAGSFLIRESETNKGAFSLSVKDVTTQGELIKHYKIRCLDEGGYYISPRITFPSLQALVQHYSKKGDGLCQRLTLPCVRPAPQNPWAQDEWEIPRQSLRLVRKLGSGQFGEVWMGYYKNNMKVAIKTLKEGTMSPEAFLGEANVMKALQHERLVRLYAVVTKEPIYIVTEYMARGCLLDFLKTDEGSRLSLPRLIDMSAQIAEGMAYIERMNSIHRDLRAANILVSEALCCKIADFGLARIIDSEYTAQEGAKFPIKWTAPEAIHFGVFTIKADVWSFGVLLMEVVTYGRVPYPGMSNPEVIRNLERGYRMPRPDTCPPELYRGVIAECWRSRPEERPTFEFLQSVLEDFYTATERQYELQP
Protein-tyrosine kinase 2-beta, sequence (Q14289 whole entry, canonical isoform): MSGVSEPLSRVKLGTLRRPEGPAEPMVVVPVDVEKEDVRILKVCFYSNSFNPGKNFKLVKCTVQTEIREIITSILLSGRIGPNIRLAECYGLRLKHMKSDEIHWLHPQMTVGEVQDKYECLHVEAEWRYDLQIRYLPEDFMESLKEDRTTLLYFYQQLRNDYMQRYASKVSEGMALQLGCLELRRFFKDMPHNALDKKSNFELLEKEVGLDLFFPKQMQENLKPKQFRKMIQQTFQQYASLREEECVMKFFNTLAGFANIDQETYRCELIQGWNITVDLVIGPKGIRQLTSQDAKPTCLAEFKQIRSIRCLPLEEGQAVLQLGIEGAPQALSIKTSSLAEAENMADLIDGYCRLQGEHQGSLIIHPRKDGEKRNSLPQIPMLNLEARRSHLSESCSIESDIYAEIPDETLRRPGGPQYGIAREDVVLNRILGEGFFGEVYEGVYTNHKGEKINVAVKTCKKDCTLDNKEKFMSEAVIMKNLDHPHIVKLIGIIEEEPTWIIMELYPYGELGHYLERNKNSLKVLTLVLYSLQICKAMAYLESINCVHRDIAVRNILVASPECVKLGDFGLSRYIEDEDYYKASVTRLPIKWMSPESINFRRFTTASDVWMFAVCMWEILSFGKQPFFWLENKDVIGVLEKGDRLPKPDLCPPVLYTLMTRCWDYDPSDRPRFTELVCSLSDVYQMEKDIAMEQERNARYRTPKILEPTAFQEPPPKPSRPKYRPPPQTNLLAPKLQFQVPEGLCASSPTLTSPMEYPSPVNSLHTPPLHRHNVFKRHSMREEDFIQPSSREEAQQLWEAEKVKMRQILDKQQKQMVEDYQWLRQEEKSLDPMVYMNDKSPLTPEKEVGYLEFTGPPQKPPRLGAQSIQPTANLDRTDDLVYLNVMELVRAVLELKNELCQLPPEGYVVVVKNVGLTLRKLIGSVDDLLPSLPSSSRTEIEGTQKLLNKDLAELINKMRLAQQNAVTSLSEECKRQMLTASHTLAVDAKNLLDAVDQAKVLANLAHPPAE
Interleukin-1 receptor-associated kinase 1, sequence (P51617 whole entry): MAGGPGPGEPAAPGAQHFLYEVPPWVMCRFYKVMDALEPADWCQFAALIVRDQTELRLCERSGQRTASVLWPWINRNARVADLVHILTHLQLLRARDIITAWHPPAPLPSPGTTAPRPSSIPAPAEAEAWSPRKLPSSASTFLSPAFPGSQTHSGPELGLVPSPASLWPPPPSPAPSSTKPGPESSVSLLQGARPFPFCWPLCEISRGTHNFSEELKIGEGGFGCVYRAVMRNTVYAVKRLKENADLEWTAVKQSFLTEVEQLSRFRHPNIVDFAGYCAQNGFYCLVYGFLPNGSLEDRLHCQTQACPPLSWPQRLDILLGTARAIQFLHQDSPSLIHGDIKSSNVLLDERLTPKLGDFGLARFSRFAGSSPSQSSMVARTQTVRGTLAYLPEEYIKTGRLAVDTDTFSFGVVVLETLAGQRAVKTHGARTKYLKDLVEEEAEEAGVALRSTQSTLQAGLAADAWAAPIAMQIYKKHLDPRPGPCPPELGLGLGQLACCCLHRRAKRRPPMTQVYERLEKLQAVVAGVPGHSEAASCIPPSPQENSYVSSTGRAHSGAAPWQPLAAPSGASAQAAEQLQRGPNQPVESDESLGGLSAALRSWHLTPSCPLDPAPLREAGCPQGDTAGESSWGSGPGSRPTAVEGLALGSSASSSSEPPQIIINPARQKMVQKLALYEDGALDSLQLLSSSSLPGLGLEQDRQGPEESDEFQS

What is called Ki is a measure of affinity in units of concentration, obtained from inhibition or displacement. Consider `Cc1n[nH]c2cnc(-c3cncc(OCC(N)Cc4cccc(C(F)(F)F)c4)c3)cc12` (centres undefined), for which the Ki in experiment [1] was > 1.58 µM (inactive); in experiment [2], 0.316 µM (active); in experiment [3] it was 1.58 µM (active); in experiment [4], 0.0631 µM (active); in [5], 0.02 µM (active).
For the compound `Cc1c(C=O)c(O)n2c(nc3ccccc32)c1C#N`, the Ki in experiment [6] is 3.16 µM (active).
By IC50 is commonly meant the point on the concentration scale where inhibition reaches its midpoint. The term EC50 denotes the concentration giving half of the maximal effect. One may read the AC50 as the concentration at which the activity in the assay is half-maximal. For the compound `CC(=O)NC1C(=O)N(CCN2CCOCC2)c2ccc(Cl)cc21` (centres undefined), the IC50 in experiment [7] was 6.75 µM (active). Besides, the EC50 in experiment [8] was 10.5 µM (active). Besides, the AC50 in [9] was 16.6 µM (active).

(Values after ChEMBL document CHEMBL1201862, “PubChem BioAssay data set” (2004).)
